This is an account of results in patent publication US11339165B2, “Pyrazolopyrimidines having activity against the respiratory syncytial virus (RSV)” (priority 2017, dated 2022).

pEC50: −log10 of the molar value. Where two headings read alike, the source gives them in different places.

By pEC50 is commonly meant the negative decadic logarithm of the EC50, by convention in mol/L. The CC50 is the concentration giving 50% cytotoxicity. Broadly, the EC50 is the concentration needed to bring the measured effect to its halfway point.

Data set [1] relates to rgRSV224 virus. The experiment in a line: Antiviral activity: rgRSV224 (GFP) replication in HeLa cells. The data set is classed as cell-based, respiratory syncytial virus (RSV).
Data set [2] relates to HeLa cells. Nature of the data set: Cytotoxicity in HeLa cells (ATP content, ATPlite kit). Conditions: read-out: TOX HELA CC50; HeLa cells, three days incubation, ATP content.
Method: (§1) Black 384-well clear-bottom microtiter plates (Corning, Amsterdam, The Netherlands) were filled via acoustic drop ejection using the echo liquid handler (Labcyte, Sunnyvale, Calif.). 200 nL of compound stock solutions (100% DMSO) were transferred to the assay plates. 9 serial 4-fold dilutions of compound were made, creating per quadrant the same compound concentration. The assay was initiated by adding 10 μL of culture medium to each well (RPMI medium without phenol red, 10% FBS-heat inactivated, 0.04% gentamycin (50 mg/mL). All addition steps are done by using a multidrop dispenser (Thermo Scientific, Erembodegem, Belgium). Next, rgRSV224 virus (MOI=1) diluted in culture medium was added to the plates. rgRSV224 virus is an engineered virus that includes an additional GFP gene (Hallak L K, Spillmann D, Collins P L, Peeples M E. Glycosaminoglycan sulfation requirements for respiratory syncytial virus infection; Journal of virology (2000), 74(22), 10508-13) and was in-licensed from the NIH (Bethesda, Md., USA). Finally, 20 μL of a HeLa cell suspension (3,000 cells/well) were plated. Medium, virus- and mock-infected controls were included in each test. The wells contain 0.05% DMSO per volume. Cells were incubated at 37° C. in a 5% CO2 atmosphere. Three days post-virus exposure, viral replication was quantified by measuring GFP expression in the cells by an in house developed MSM laser microscope (Tibotec, Beerse, Belgium). The EC50 was defined as the 50% inhibitory concentration for GFP expression. In parallel, compounds were incubated for three days in a set of white 384-well microtiter plates (Corning) and the cytotoxicity of compounds in HeLa cells was determined by measuring the ATP content of the cells using the ATPlite kit (Perkin Elmer, Zaventem, Belgium) according to the manufacturer's instructions. The CC50 was defined as the 50% concentration for cytotoxicity.
Data set [3] deals with HeLa cells.
Method: as §1
A short description of data set [4]: Cytotoxicity in HeLa cells (ATP content, ATPlite kit). The conditions noted are these: human.
Method: as §1
[5] abbreviates: rgRSV224 virus (MOI=1), HeLa cells, GFP expression three days post-virus exposure; read-out: RSV HELA EC50.
The mark [6] stands for this setting: human respiratory syncytial virus, HeLa, 72 h, read-out: RSV HELA EC50 (μM), rgRSV224 virus (MOI=1), HeLa cells, GFP expression three days post-virus exposure.

For the molecule `C[C@@H]1c2ccccc2CCN1C(=O)c1cc(C2CC2)n2nc(-c3ccc(N4C[C@@H](C(N)=O)C[C@H]4C)cc3F)cc2n1` (relative stereo) [Compound 34, (3*S,5*R)-1-(4-{7-cyclopropyl-5-[(1R)-1-methyl-1,2,3,4-tetrahydroisoquinoline-2-carbonyl]pyrazolo[1,5-a]pyrimidin-2-yl}-3-fluorophenyl)-5-methylpyrrolidine-3-carboxamide], the negative-log EC50 (pEC50) in data set [1] (setting [5]) was 7.43. Besides, the half-maximal cytotoxic concentration (CC50) in data set [2] came to 23.1 µM.
Consider `C[C@@H]1c2ccccc2CCN1C(=O)c1cc(C2CC2)n2nc(-c3ccc(N4C[C@@H](C(N)=O)C[C@@H]4C)cc3F)cc2n1` (relative stereo) [Compound 35, (3*S,5*S)-1-(4-{7-cyclopropyl-5-[(1R)-1-methyl-1,2,3,4-tetrahydroisoquinoline-2-carbonyl]pyrazolo[1,5-a]pyrimidin-2-yl}-3-fluorophenyl)-5-methylpyrrolidine-3-carboxamide], for which the pEC50 in data set [1] (setting [5]) was 7.48. In addition, the midpoint of cytotoxicity in data set [3], the CC50, lay at 25.5 µM.
In the case of `C[C@@H]1c2ccccc2CCN1C(=O)c1cc(C2CC2)n2nc(-c3ccc(N4CCC(O)(CO)C4)cc3F)cc2n1` (single isomer, unassigned) [Compound 104], in data set [1] (read-out: RSV HELA EC50; rgRSV224 virus (MOI=1), HeLa cells, GFP expression three days post-virus exposure), the negative logarithm of the EC50 (pEC50) was 7.60. This molecule also came in with a cytotoxic concentration (CC50) in data set [3] (human, 3 days) of 28.2 µM.
Turning to `C[C@@H]1c2ccccc2CCN1C(=O)c1cc(C2CC2)n2nc(-c3ccc(N4CC[C@@H](NP(C)(C)=O)C4)cc3F)cc2n1` [Compound 30, (1R)-2-(7-Cyclopropyl-2-{4-[(3R)-3-[(dimethylphosphoryl)amino]pyrrolidin-1-yl]-2-fluorophenyl}pyrazolo[1,5-a]pyrimidine-5-carbonyl)-1-methyl-1,2,3,4-tetrahydro-isoquinoline], the half-maximal effective concentration (EC50) in data set [1] (setting [6]) came out at 0.036 µM. The same molecule yielded a CC50 at 3 days in data set [4] of 33.9 µM.
In the same order, the values of `C[C@@H]1c2ccccc2CCN1C(=O)c1cc(C2CC2)n2nc(-c3ccc(N4CC[C@H](NP(C)(C)=O)C4)cc3F)cc2n1` [Compound 31, (1R)-2-(7-Cyclopropyl-2-{4-[(3S)-3-[(dimethylphosphoryl)amino]pyrrolidin-1-yl]-2-fluorophenyl}pyrazolo[1,5-a]pyrimidine-5-carbonyl)-1-methyl-1,2,3,4-tetrahydro-isoquinoline] are 0.036 µM and 39.1 µM.
